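Method: 48-hour compound exposure of cells in 96-well plates, five concentrations, linear interpolation of endpoints. Abbreviation: GI50, concentration required for 50% inhibition of growth. At the TGI there is no net growth.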

From PubChem BioAssay (NCI) come the findings set out here.

Test systems include 786-0 renal; ACHN renal; BT-549 breast; CAKI-1 renal; HCC-2998 colon; IGROV1 ovarian; MCF7 breast; NCI/ADR-RES ovarian; OVCAR-8 ovarian; SK-MEL-28 melanoma.
Test in all cases: DTP human tumour cell line panel, 48 h

By TGI is commonly meant the concentration giving total growth inhibition. As to `C=C(C)C1CCC2(C)C1CCC1(C)C2CCC2C3(C)C4OC(OC4=O)C(C)(C)C3CCC21C` (stereo not drawn), the TGI in the experiment with 786-0 renal, with ACHN renal, in the experiment with BT-549 breast, in the experiment on CAKI-1 renal, with HCC-2998 colon and in the experiment on IGROV1 ovarian was over 100 µM each time. In addition, the TGI with MCF7 breast, in the experiment on NCI/ADR-RES ovarian, in the experiment with OVCAR-8 ovarian and in the experiment on SK-MEL-28 melanoma was over 100 µM throughout.

On to `O=C(CCCCCCCCC(=O)N1C(=O)CC(=O)N(c2ccc(Cl)cc2)C1=S)N1C(=O)CC(=O)N(c2ccc(Cl)cc2)C1=S`, for which the total growth inhibition concentration (TGI) in the experiment on 786-0 renal, with ACHN renal, with BT-549 breast, in the experiment on CAKI-1 renal, in the experiment on HCC-2998 colon and in the experiment on MCF7 breast was over 100 µM in each case. Moreover, the TGI in the experiment with NCI/ADR-RES ovarian, in the experiment with OVCAR-8 ovarian and in the experiment on SK-MEL-28 melanoma was over 100 µM throughout.

For `COc1cc2c(cc1OC)C(C1CC1)ON(C)CC2` (stereo not drawn), the TGI in the experiment with 786-0 renal, in the experiment on ACHN renal, in the experiment with BT-549 breast, in the experiment on CAKI-1 renal, in the experiment with HCC-2998 colon and in the experiment on IGROV1 ovarian was over 100 µM in each case. Also, the TGI with MCF7 breast, in the experiment on NCI/ADR-RES ovarian, with OVCAR-8 ovarian and in the experiment on SK-MEL-28 melanoma was over 100 µM throughout.

Regarding `COC1=C(OC)C(=O)C(Cc2c(-c3ccccc3)nc3sc(Cl)cn23)=C(C)C1=O`, the TGI is 41.8 µM in the experiment on 786-0 renal; 30.7 µM in the experiment on ACHN renal; 30.2 µM in the experiment with BT-549 breast; 50.3 µM with CAKI-1 renal; 46.6 µM with HCC-2998 colon; 29.9 µM in the experiment on IGROV1 ovarian. Also, the TGI turned out to be 52.4 µM in the experiment with MCF7 breast, 39.9 µM in the experiment with NCI/ADR-RES ovarian, 32.9 µM with OVCAR-8 ovarian and 27 µM in the experiment with SK-MEL-28 melanoma.

Take `O=c1c2ccccc2n2nnc3ccc(NCCNCCO)c1c32`: the TGI with 786-0 renal amounted to 11.5 µM; with ACHN renal, 5.89 µM; in the experiment on BT-549 breast, 10.1 µM; in the experiment on CAKI-1 renal, 10 µM; with HCC-2998 colon, 3.74 µM; with IGROV1 ovarian, 15.6 µM. Further, the TGI in the experiment with MCF7 breast is 14.9 µM; in the experiment with NCI/ADR-RES ovarian, 5.96 µM; with OVCAR-8 ovarian, 4.74 µM; with SK-MEL-28 melanoma, 10.9 µM.

`CCOC(=O)NCC(=O)NCC(=O)NCC(N)=O`: the total growth inhibition concentration (TGI) in the experiment with 786-0 renal, in the experiment with ACHN renal, with BT-549 breast, with CAKI-1 renal, in the experiment on HCC-2998 colon and in the experiment on IGROV1 ovarian was over 100 µM throughout. The TGI in the experiment with MCF7 breast, with NCI/ADR-RES ovarian, with OVCAR-8 ovarian and in the experiment on SK-MEL-28 melanoma was over 100 µM each time.

`CC1(O)CC23CC(O)C4(O)C(CC(O)C4(C)C)C(C)(O)C2CCC1C3O` (stereo not drawn): the TGI in the experiment on 786-0 renal, with ACHN renal, with BT-549 breast, with CAKI-1 renal, with HCC-2998 colon and in the experiment with IGROV1 ovarian was over 100 µM each time. For the same compound, the TGI in the experiment with MCF7 breast, in the experiment with NCI/ADR-RES ovarian, in the experiment on OVCAR-8 ovarian and in the experiment with SK-MEL-28 melanoma was over 100 µM throughout.

In the case of `COc1cc2ccc(C(C)NCC#N)cc2cc1OC` (stereo not drawn), the TGI with 786-0 renal, in the experiment with ACHN renal, in the experiment on BT-549 breast, with CAKI-1 renal, in the experiment with HCC-2998 colon and with IGROV1 ovarian was over 100 µM throughout. Moreover, the TGI in the experiment on MCF7 breast, with NCI/ADR-RES ovarian, with OVCAR-8 ovarian and in the experiment on SK-MEL-28 melanoma was over 100 µM in each case.

With `COc1cc(/C=C2\C(=O)N(c3ccc(Cl)cc3)C(c3ccccc3)S2(=O)=O)cc(OC)c1OC` (stereo not drawn), the TGI is over 100 µM with 786-0 renal; over 100 µM with ACHN renal; over 100 µM in the experiment with BT-549 breast; over 100 µM in the experiment on CAKI-1 renal; over 100 µM in the experiment on HCC-2998 colon; over 63.6 µM in the experiment with MCF7 breast. Also, the TGI in the experiment with NCI/ADR-RES ovarian, in the experiment with OVCAR-8 ovarian and with SK-MEL-28 melanoma was over 100 µM each time.

In the case of `CC(=O)CCN1CC2CN=NC2(C#N)C1` (stereo not drawn), the TGI in the experiment with 786-0 renal was over 100 µM; in the experiment on ACHN renal it was over 88.7 µM; in the experiment with BT-549 breast it was over 100 µM; in the experiment with HCC-2998 colon, over 100 µM; in the experiment with IGROV1 ovarian, over 100 µM; in the experiment with MCF7 breast, over 100 µM. Moreover, the TGI with NCI/ADR-RES ovarian, in the experiment on OVCAR-8 ovarian and with SK-MEL-28 melanoma was over 100 µM in each case.

`CC(C)(C)C(=O)C(N)C(=O)C(C)(C)C`: the TGI with 786-0 renal, with ACHN renal, with BT-549 breast, in the experiment on CAKI-1 renal, in the experiment on HCC-2998 colon and in the experiment with MCF7 breast was over 100 µM each time. Further, the TGI in the experiment with NCI/ADR-RES ovarian, with OVCAR-8 ovarian and in the experiment on SK-MEL-28 melanoma was over 100 µM each time.

One may read the GI50 as the concentration giving 50% growth inhibition. On to `COc1ccc(C2CC(c3cccc(Nc4ccncc4)c3)=NN2c2ccccc2)cc1` (stereo not drawn), for which the GI50 with ACHN renal is 1.81 µM; with BT-549 breast, 4.94 µM; in the experiment with CAKI-1 renal, 1.66 µM; in the experiment on HCC-2998 colon, 1.61 µM; with IGROV1 ovarian, 1.81 µM; in the experiment with MCF7 breast, 1.87 µM. Also, the GI50 was 1.74 µM in the experiment with NCI/ADR-RES ovarian, 2.19 µM in the experiment with OVCAR-8 ovarian and 1.69 µM with SK-MEL-28 melanoma. The TGI in the experiment with ACHN renal turned out to be 3.28 µM; with BT-549 breast, 20.6 µM; with CAKI-1 renal, 3.18 µM; with HCC-2998 colon it was 3.01 µM; with IGROV1 ovarian, 3.51 µM; with MCF7 breast, 4.01 µM. For the same compound, the TGI in the experiment with NCI/ADR-RES ovarian stood at 3.46 µM; in the experiment on OVCAR-8 ovarian, 4.77 µM; in the experiment on SK-MEL-28 melanoma it was 3.24 µM.

For `c1csc(-c2cc(-c3ccsc3)cs2)c1`, the TGI in the experiment with 786-0 renal, in the experiment with ACHN renal, with BT-549 breast, in the experiment with CAKI-1 renal, with HCC-2998 colon and with IGROV1 ovarian was over 100 µM each time. Further, the total growth inhibition concentration (TGI) with MCF7 breast, in the experiment with NCI/ADR-RES ovarian and in the experiment with SK-MEL-28 melanoma was over 100 µM each time.
